The source of these data is patent publication US9629834B2, “Medicinal composition for inhibiting formation and/or enlargement of cerebral aneurysm or shrinking same” (KYOTO UNIVERSITY, priority 2013, dated 2017).

Molecules are shown by their SMILES.

For series [1], the system named is lymphocytes in peripheral blood. The series can be described thus: Lymphopenic action in cerebral aneurysm model. Format: in vivo, SD rat. To be noted: 0.03 mg/5 mL or 0.1 mg/5 mL suspension, 5 mL/kg, forced oral, once a day, Day 1 to Day 27; blood collected Day 28; FIG. 2. As to the method: A rat model of cerebral aneurysm was prepared according to the method disclosed on the literature by Hashimoto et al. (Surgical Neurology 1978, Vol. 10, p. 3-8). Namely, 50 mg/kg of pentobarbital was administrated intraperitoneally to a 7-week-old male SD rat, and the left common carotid artery and the left renal artery were ligated by using 10-0 nylon thread under anesthesia (this is referred to as the surgery for inducing cerebral aneurysm). From the day after surgery (Day 1), the rat was reared with being fed a high-salt diet. During a rearing period, the rat was given free access to water. Forced oral administration of 0.03 mg/5 mL or 0.1 mg/5 mL of the suspension of Compound 1 to the cerebral aneurysm model was conducted once a day at a dose of 5 mL/kg from 1 day after surgery (Day 1) to 27 days after surgery (Day 27). It should be noted that forced oral administration of the 0.5% MC solution (0 mg/5 mL of the suspension of Compound 1) to the cerebral aneurysm model was conducted once a day at a dose of 5 mL/kg. The group of these rats was defined as a vehicle group. […] The number of lymphocytes in the collected blood was counted by using a blood test system (Advia 120, Siemens Healthcare Diagnostics) according to the manual of the system.

The subject of a further series is cerebral aneurysm model. The experiment in a line: Inhibitory effect on enlargement of cerebral aneurysm in cerebral aneurysm model. In kind it is in vivo, SD rat. As to conditions: 0.1 mg/5 mL suspension, forced oral, once a day from Day 7; measured Day 7, Day 28, Day 49; FIG. 8 and FIG. 9. The method, then:
A rat model of cerebral aneurysm was prepared according to the method disclosed on the literature by Hashimoto et al. (Surgical Neurology 1978, Vol. 10, p. 3-8). Namely, 50 mg/kg of pentobarbital was administrated intraperitoneally to a 7-week-old male SD rat, and the left common carotid artery and the left renal artery were ligated by using 10-0 nylon thread under anesthesia (this is referred to as the surgery for inducing cerebral aneurysm). From the day after surgery (Day 1), the rat was reared with being fed a high-salt diet. During a rearing period, the rat was given free access to water. The cerebral aneurysm model was reared with being fed a high-salt diet for 7 days from the day of the surgery so that the model formed cerebral aneurysm. 7 Days after surgery (Week 1, Day 7), the diet for the cerebral aneurysm model was replaced with a normal diet, and forced oral administration of the suspension of Compound 1 at a concentration of 0.1 mg/5 mL to the cerebral aneurysm model was conducted once a day. […] 7 Days after surgery (Week 1, Day 7), 28 days after surgery (Week 4, Day 28), and 49 days after surgery (Week 7, Day 49), the right olfactory artery/anterior cerebral artery bifurcation containing cerebral aneurysm was extirpated and the size of cerebral aneurysm (the maximum diameter and the mean diameter) was measured by similar procedures to Example 1.

Series [2] is described as follows: Influences on blood pressure and heart rate of rats (tail-cuff method). To be noted: 0.03 or 0.1 mg/kg oral once a day, Day 1 to Day 27; measured Day 28, without anesthesia; FIG. 7A and FIG. 7B. Format: in vivo, SD rat. The method, then: Immediately before dissecting rats 28 days after surgery (Day 28) as described in the section (1) of Example 1, blood pressure and heart rate of each of rats were measured noninvasively without anesthesia by a tail-cuff method. The measurement was conducted by using a noninvasive blood pressure measuring device for rats and mice BP-98A (Softron). The measurement was conducted three times per rat, and the mean value was used for calculating the mean value of all rats in each of the groups. No influence of the administration of Compound 1 on any blood pressure (SBP: systolic blood pressure, MBP: mean blood pressure, DBP: diastolic blood pressure) or heart rate was observed.

The test system of the next series is MCP-1. The series can be described thus: Suppression of expression of MCP-1 at cerebral artery bifurcation (immunostaining). In kind it is in vivo, SD rat. To be noted: vs group without drug, FIG. 4.
Series [3] deals with Human carotid artery endothelial cells HCtAEC. The series can be described thus: Permeability of endothelial cells (Transwell, FITC-dextran). As to conditions: 0.1 nM, 1 nM, 10 nM, or 100 nM; 60 minutes pre-culture; fluorescence after 5, 60 and 210 minutes; FIG. 14. Format: cell-based. The method, then: Human carotid artery endothelial cells […] (Cell Applications) were seeded in the upper compartment of Transwell (diameter: 6.5 mm, pore size: 0.4 μm, collagen-Coated: Corning) so that the cell density was 1×10^5 cells/well, and the cells were cultured overnight in MesoEndo Growth Medium (Cell Applications) under a 5% CO2 atmosphere at 37° C. The medium was replaced with Endothelial Cell Serum-Free Defined Medium (Cell Applications), and the cells were further cultured overnight under the CO2 atmosphere at 37° C. Then, Compound 1 was added to the upper compartment and the lower compartment of Transwell so that the final concentration was 0 nM, 0.1 nM, 1 nM, 10 nM, or 100 nM, and the cells were cultured continuously. The well to which Compound 1 was not added was defined as a control. After culturing for 60 minutes, 250 μg/mL of fluorescein isothiocyanate (FITC)-dextran (2,000 kDa: Sigma-Aldrich) was added to the upper compartment of Transwell, and the amount of FITC-dextran which permeated into the lower compartment was determined by measuring the fluorescence intensity of the medium in the lower compartment after 5 minutes, 60 minutes, and 210 minutes.

Take `C[C@H](Oc1ccc(-c2nc(-c3ccc4[nH]cnc4c3)no2)cc1C(F)(F)F)C(F)(F)F.Cl` [Compound 1, 5-{5-[3-(trifluoromethyl)-4-{[(2S)-1,1,1-trifluoropropan-2-yl]oxy}phenyl]-1,2,4-oxadiazol-3-yl}-1H-benzimidazole hydrochloride]: the “number of lymphocytes in peripheral blood” value in series [1] is listed as “decreased the number of lymphocytes in peripheral blood in a concentration-dependent manner”. Besides, the “enlargement of cerebral aneurysm (maximum diameter and mean diameter)” value in the series on cerebral aneurysm model is “inhibited the enlargement of cerebral aneurysm”. In series [2], the “influence on blood pressure (SBP, MBP, DBP)” value is listed as “No influence” and the “influence on heart rate” value is recorded as “No influence”. The “expression of MCP-1 in cerebral aneurysm walls” value in the series on MCP-1 (0.03 mg/kg oral once a day) is “suppressed as compared to the group without being administered a drug”. Further, the “expression of MCP-1 in cerebral aneurysm walls” value in the series with MCP-1 (0.1 mg/kg oral once a day) was “suppressed as compared to the group without being administered a drug”. Also, in series [3], the “amount of FITC-dextran which permeated into the lower compartment (permeability of endothelial cells)” value was “decreased the amount of FITC-dextran which permeated into the lower compartment in a concentration-dependent manner”.
